For test [1], the system named is IFNα activation of STAT1 in PBMC. In words: IFNα activation of STAT1 in PBMC. The format is cell-based. As to conditions: Homo sapiens; IFNα activation of STAT1 in PBMC; average IC50; read-out: IFNα signaling inhibitory potency IC50. Summed up: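 Human PBMC, with red cells lysed by NH4Cl, were pre-treated with compound for 30 min at 37 °C and 5% CO2. They were then stimulated for 30 min with recombinant human IFNα at 5 ng/mL final.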

The target in test [2] is T1, Recombinant human JAK1 (catalytic domain, amino acids 866-1154) (Homo sapiens, UniProt P23458).
T1 construct: catalytic domain, amino acids 866-1154
In words: JAK1 inhibition assay. Particulars: read-out: JAK1 potency IC50. The format is biochemical.

The target in test [3] is T2, Recombinant human JAK2 (catalytic domain, amino acids 808-1132) (Homo sapiens, UniProt O60674).
T2 construct: catalytic domain, amino acids 808-1132
In words: JAK2 inhibition assay. Note: 0.7 µM ATP. The format is biochemical. As to conditions: read-out: JAK2 potency IC50.

Test [4] deals with T3, Recombinant human TYK2 catalytic domain (amino acids 871-1187) (Homo sapiens, UniProt P29597).
T3 construct: catalytic domain (amino acids 871-1187)
T3 sequence (P29597 871-1187): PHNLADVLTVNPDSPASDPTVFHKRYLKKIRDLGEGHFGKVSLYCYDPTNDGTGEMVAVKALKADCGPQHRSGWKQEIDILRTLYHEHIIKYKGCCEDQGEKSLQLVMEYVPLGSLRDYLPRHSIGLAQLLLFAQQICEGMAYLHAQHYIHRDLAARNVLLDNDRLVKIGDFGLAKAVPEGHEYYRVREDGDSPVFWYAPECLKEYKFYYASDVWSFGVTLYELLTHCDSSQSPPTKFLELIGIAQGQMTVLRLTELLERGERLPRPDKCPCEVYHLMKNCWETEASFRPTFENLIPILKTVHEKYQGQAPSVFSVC
Nature of the test: TYK2 radioactive assay polyGT substrate. Note: 0.1 µM ATP. The format is biochemical. Summed up:
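Reaction at 30° C. for 120 min, ended with 150 mM phosphoric acid, washed, counted; percent inhibition scaled between vehicle and 10 μM staurosporine cpm.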

Test [5] has as its target Recombinant human JAK3 catalytic domain (amino acids 781-1124) (Homo sapiens, UniProt P52333). Nature of the test: JAK3 inhibition assay. In kind it is biochemical. Summed up: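 Radiometric kinase reaction run 45 min at 30° C., stopped with phosphoric acid; activity as vehicle cpm minus 10 μM staurosporine cpm.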
Test [6] deals with IL-12 activation of STAT4 in NK-92 cells. In words: IL-12 activation of STAT4 in NK-92 cells using AphaLISA SureFire technology. The format is cell-based. Particulars: Homo sapiens, NK92; IL-12 activation of STAT4 in NK-92 cells, AlphaLISA SureFire; average IC50; read-out: IL12 pSTAT4 IC50. Summed up: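 NK-92 cells, starved of rhIL-2 overnight, were stimulated with rhIL-12 for 30 min at 37 °C with test compounds, then lysed. Phospho-STAT4 (Tyr693) was read by AlphaLISA SureFire. Percent inhibition versus the vehicle-plus-trigger signal was fitted by sigmoidal nonlinear regression to give IC50, averaged over experiments.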
In general terms: In Alpha technology, singlet oxygen from a donor bead excites a nearby acceptor bead.

The source of these data is patent US11564923B2, “Compounds and pharmaceutical compositions thereof for the treatment of inflammatory disorders” (Galapagos NV, priority 2017, dated 2023).

The term IC50 denotes the concentration at which inhibition is half-maximal.

Chain of Recombinant human JAK3 catalytic domain (amino acids 781-1124) (P52333 781-1124): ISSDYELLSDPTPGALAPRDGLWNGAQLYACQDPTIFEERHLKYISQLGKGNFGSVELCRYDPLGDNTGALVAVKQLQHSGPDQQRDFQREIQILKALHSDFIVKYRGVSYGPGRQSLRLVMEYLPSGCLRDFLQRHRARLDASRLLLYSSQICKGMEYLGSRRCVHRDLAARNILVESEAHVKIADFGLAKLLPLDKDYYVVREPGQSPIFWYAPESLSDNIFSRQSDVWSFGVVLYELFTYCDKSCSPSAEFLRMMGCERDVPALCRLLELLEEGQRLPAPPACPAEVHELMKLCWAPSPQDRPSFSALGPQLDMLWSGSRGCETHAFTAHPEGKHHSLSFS
T2 sequence (O60674 808-1132): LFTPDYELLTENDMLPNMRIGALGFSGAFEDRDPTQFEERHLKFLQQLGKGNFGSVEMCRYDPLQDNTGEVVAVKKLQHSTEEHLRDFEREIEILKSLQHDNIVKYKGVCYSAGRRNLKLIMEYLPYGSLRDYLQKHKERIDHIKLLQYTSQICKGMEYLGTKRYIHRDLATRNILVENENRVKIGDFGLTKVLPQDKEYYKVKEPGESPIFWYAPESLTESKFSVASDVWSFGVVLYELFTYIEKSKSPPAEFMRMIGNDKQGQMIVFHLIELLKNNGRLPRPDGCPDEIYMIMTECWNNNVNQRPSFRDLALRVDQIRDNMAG
T1 sequence (P23458 866-1154): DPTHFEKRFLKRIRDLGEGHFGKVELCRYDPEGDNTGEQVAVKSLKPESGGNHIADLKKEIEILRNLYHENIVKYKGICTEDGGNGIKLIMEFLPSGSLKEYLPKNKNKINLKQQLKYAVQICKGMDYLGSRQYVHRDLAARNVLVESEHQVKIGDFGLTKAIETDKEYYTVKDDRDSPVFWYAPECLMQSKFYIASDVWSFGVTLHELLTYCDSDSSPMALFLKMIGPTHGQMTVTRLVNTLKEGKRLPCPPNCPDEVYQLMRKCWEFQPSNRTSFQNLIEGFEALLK

`Cc1cc(C#N)ncc1Oc1cc(Nc2ccc(C(=O)N3CC(O)C3)nn2)c2ncn(C)c2n1` [Compound 115, 5-[7-[[6-(3-hydroxyazetidine-1-carbonyl)pyridazin-3-yl]amino]-3-methyl-imidazo[4,5-b]pyridin-5-yl]oxy-4-methyl-pyridine-2-carbonitrile]: the IC50 in test [1] stood at 144 nM; in test [2], 107 nM; in test [3] it was 29.1 nM; in test [4], 8.88 nM; in test [5], 2110 nM; in test [6] it was 968 nM.

`COCCCN(c1cc(Nc2cc(N)ncn2)c2ncn(C)c2n1)c1cnc(C#N)cc1C` [Compound 4, 5-[[7-(6-Amino-pyrimidin-4-ylamino)-3-methyl-3H-imidazo[4,5-b]pyridin-5-yl]-(3-methoxy-propyl)-amino]-4-methyl-pyridine-2-carbonitrile]: the IC50 turned out to be 91 nM in test [1]; 92.3 nM in test [2]; 16.4 nM in test [3]; 4.37 nM in test [4]; 784 nM in test [5]; 198 nM in test [6].

Take `Cc1cc(C#N)ncc1Oc1cc(Nc2ccc(C3CCOCC3)cn2)c2ncn(C)c2n1` [Compound 87, 4-methyl-5-[3-methyl-7-[[5-(oxan-4-yl)pyridin-2-yl]amino]imidazo[4,5-b]pyridin-5-yl]oxypyridine-2-carbonitrile]: the IC50 in test [1] amounted to 158 nM; in test [2] it was 73.1 nM; in test [3] it was 38.8 nM; in test [4], 8.81 nM; in test [5] it was 979 nM; in test [6] it was 266 nM.

`Cc1cc(C#N)ncc1Oc1cc(Nc2ccc(C3(O)COC3)cc2)c2ncn(C)c2n1` [Compound 89, 5-[7-[4-(3-hydroxyoxetan-3-yl)anilino]-3-methylimidazo[4,5-b]pyridin-5-yl]oxy-4-methylpyridine-2-carbonitrile]: the IC50 in test [1] was 266 nM; in test [2], 71.5 nM; in test [3], 110 nM; in test [4] it was 11 nM; in test [5], 1990 nM; in test [6] it was 476 nM.

`COC1CC(Nc2cc(Nc3cc(Oc4cnc(C#N)cc4C)nc4c3ncn4C)ncn2)C1` (stereo not drawn) [Compound 36, 5-{7-[6-(3-Methoxy-cyclobutylamino)-pyrimidin-4-ylamino]-3-methyl-3H-imidazo[4,5-b]pyridin-5-yloxy}-4-methyl-pyridine-2-carbonitrile]: the IC50 in test [1] was found to be 79 nM; in test [2], 40.5 nM; in test [3], 9.17 nM; in test [4] it was 1.41 nM; in test [5], 417 nM; in test [6], 50 nM.

For `COc1ccc(Nc2cc(Oc3cnc(C#N)cc3C)nc3c2ncn3C)nc1` [Compound 84, 5-[7-[(5-methoxypyridin-2-yl)amino]-3-methylimidazo[4,5-b]pyridin-5-yl]oxy-4-methylpyridine-2-carbonitrile], the IC50 was 178 nM in test [1]; 57.1 nM in test [2]; 45.5 nM in test [3]; 11 nM in test [4]; 908 nM in test [5]; 87 nM in test [6].

For `COCCCS(=O)(=O)c1ccc(Nc2cc(Oc3cnc(C#N)cc3C)nc3c2ncn3C)cc1` [Compound 71, 5-[7-[4-(3-methoxypropylsulfonyl)anilino]-3-methyl-imidazo[4,5-b]pyridin-5-yl]oxy-4-methyl-pyridine-2-carbonitrile], the IC50 in test [1] was determined as 111 nM; in test [2], 103 nM; in test [3] it was 86.2 nM; in test [4] it was 13.6 nM; in test [5], 1080 nM; in test [6], 128 nM.

Regarding `COC1CN(C(=O)c2ccc(Nc3cc(Oc4cnc(C#N)cc4C)nc4c3ncn4C)nn2)C1` [Compound 116, 5-[7-[[6-(3-methoxyazetidine-1-carbonyl)pyridazin-3-yl]amino]-3-methyl-imidazo[4,5-b]pyridin-5-yl]oxy-4-methyl-pyridine-2-carbonitrile], the half-inhibitory concentration (IC50) in test [1] was determined as 113 nM; in test [2], 151 nM; in test [3] it was 28.3 nM; in test [4], 5.41 nM; in test [5], 1200 nM; in test [6] it was 79 nM.

Regarding `COCCNc1cc(Nc2cc(Oc3cnc(C#N)cc3C)nc3c2ncn3C)ncn1` [Compound 31, 5-{7-[6-(2-Methoxy-ethylamino)-pyrimidin-4-ylamino]-3-methyl-3H-imidazo[4,5-b]pyridin-5-yloxy}-4-methyl-pyridine-2-carbonitrile], the IC50 is 94 nM in test [1]; 187 nM in test [2]; 43.8 nM in test [3]; 8.01 nM in test [4]; 1050 nM in test [5]; 110 nM in test [6].

With `Cc1cc(C#N)nnc1Oc1cc(Nc2cc(N)ncn2)c2ncn(C)c2n1` [Compound 3, 6-[7-(6-Amino-pyrimidin-4-ylamino)-3-methyl-3H-imidazo[4,5-b]pyridin-5-yloxy]-5-methyl-pyridazine-3-carbonitrile], the IC50 in test [1] is 119 nM; in test [2] it was 110 nM; in test [3], 78 nM; in test [4] it was 12.7 nM; in test [5] it was 2160 nM; in test [6] it was 274 nM.

With `Cc1cc(C#N)ncc1Oc1cc(Nc2cnn(CCN3CCOCC3)c2)c2ncn(C)c2n1` [Compound 186, 4-methyl-5-[3-methyl-7-[[1-(2-morpholinoethyl)pyrazol-4-yl]amino]imidazo[4,5-b]pyridin-5-yl]oxy-pyridine-2-carbonitrile], the IC50 in test [1] was 229 nM; in test [2], 77.2 nM; in test [3], 22.2 nM; in test [4], 6.27 nM; in test [5], 257 nM; in test [6], 241 nM.

With `CC(C)C(Nc1cc(Nc2ccc(S(C)(=O)=O)cn2)c2ncn(C)c2n1)C(F)(F)F` (stereo not drawn) [Compound 65, 3-methyl-N7-(5-methylsulfonyl-2-pyridiyl)-N5-[2-methyl-1-(trifluoromethyl)propyl]imidazo[4,5-b]pyridine-5,7-diamine], the IC50 is 96 nM in test [1]; 69.4 nM in test [2]; 12.4 nM in test [3]; 7.84 nM in test [4]; 69.7 nM in test [5]; 80 nM in test [6].

On to `Cc1cc(C#N)ncc1Oc1cc(Nc2ccc(N3CCNCC3)cn2)c2ncn(C)c2n1` [Compound 180, 4-methyl-5-[3-methyl-7-[(5-piperazin-1-yl-2-pyridyl)amino]imidazo[4,5-b]pyridin-5-yl]oxy-pyridine-2-carbonitrile], for which the concentration for half-maximal inhibition (IC50) in test [1] turned out to be 84 nM; in test [2], 81.7 nM; in test [3], 18.2 nM; in test [4] it was 6.61 nM; in test [5], 409 nM; in test [6], 769 nM.

For `COCC1CN(C(=O)c2ccc(Nc3cc(Oc4cnc(C#N)cc4C)nc4c3ncn4C)nn2)C1` [Compound 117, 5-[7-[[6-[3-(methoxymethyl)azetidine-1-carbonyl]pyridazin-3-yl]amino]-3-methyl-imidazo[4,5-b]pyridin-5-yl]oxy-4-methyl-pyridine-2-carbonitrile], the IC50 in test [1] turned out to be 148 nM; in test [2], 205 nM; in test [3], 32.3 nM; in test [4] it was 8.47 nM; in test [5], 2030 nM; in test [6], 181 nM.

Regarding `Cc1cc(C#N)ncc1Oc1cc(Nc2ccc(OC3CCN(C)CC3)cn2)c2ncn(C)c2n1` [Compound 86, 4-methyl-5-[3-methyl-7-[[5-(1-methylpiperidin-4-yl)oxypyridin-2-yl]amino]imidazo[4,5-b]pyridin-5-yl]oxypyridine-2-carbonitrile], the IC50 was 121 nM in test [1]; 197 nM in test [2]; 22.9 nM in test [3]; 9.06 nM in test [4]; 446 nM in test [5]; 506 nM in test [6].
